Results on one compound are retold here after patent publication US9963441B2, “Histone demethylase inhibitors” (CELGENE QUANTICEL RESEARCH, INC., priority 2013, dated 2018).

In the assay the target is T1, JMJD2C (Homo sapiens, UniProt Q9H3R0).
T1 construct: purchased BPS Bioscience 50105
T1 sequence (Q9H3R0 2-372): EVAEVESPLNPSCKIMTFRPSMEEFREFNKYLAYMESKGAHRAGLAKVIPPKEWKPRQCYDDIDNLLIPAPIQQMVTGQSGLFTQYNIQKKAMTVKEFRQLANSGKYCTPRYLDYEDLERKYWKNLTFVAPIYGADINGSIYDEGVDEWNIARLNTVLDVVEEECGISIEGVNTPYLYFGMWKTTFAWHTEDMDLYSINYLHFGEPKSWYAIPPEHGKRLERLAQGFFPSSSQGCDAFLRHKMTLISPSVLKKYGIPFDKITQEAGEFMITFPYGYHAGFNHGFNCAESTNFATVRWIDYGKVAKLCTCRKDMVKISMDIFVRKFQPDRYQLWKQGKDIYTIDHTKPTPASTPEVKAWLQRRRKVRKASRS
Nature of the assay: JMJD2C in vitro enzyme inhibition assay (TR-FRET). It counts as biochemical. (In TR-FRET formats the signal depends on donor and acceptor labels being close together.)

The structures appear in SMILES notation.

Description: This assay determines the ability of a test compound to inhibit Jarid1A, Jarid1B, JMJD2C, and JMJD2A demethylase activity. […] Baculovirus expressed JMJD2C (GenBank Accession #BC143571, AA 2-372) was purchased from BPS Bioscience (Cat#50105).
The ability of test compounds to inhibit the activity of JMJD2C was determined in 384-well plate format under the following reaction conditions: 0.3 nM JMJD2C, 300 nM H3K9me3-biotin labeled peptide (Anaspec cat #64360), 2 μM alpha-ketoglutaric acid in assay buffer of 50 mM HEPES, pH7.3, 0.005% Brij35, 0.5 mM TCEP, 0.2 mg/ml BSA, 50 μM sodium L-ascorbate, and 2 μM ammonium iron(II) sulfate. Reaction product was determined quantitatively by TR-FRET after the addition of detection reagent Phycolink Streptavidin-allophycocyanin (Prozyme) and Europium-anti-di-methylated histone H3 lysine 9 (H3K9me2) antibody (PerkinElmer) in the presence of 5 mM EDTA in LANCE detection buffer (PerkinElmer) at a final concentration of 50 nM and 1 nM, respectively.
The assay reaction was initiated by the following: 2 μl of the mixture of 900 nM H3K9me3-biotin labeled peptide and 6 μM alpha-ketoglutaric acid with 2 μl of 11-point serial diluted inhibitor in 3% DMSO were added to each well of the plate, followed by the addition of 2 μl of 0.9 nM JMJD2C to initiate the reaction. […]

Turning to `Cn1cnc(-c2cc(-c3nn[nH]n3)ccn2)c1-c1ccc(Cl)c(OCc2ccccc2)c1` [Example 161, 2-[5-(4-chloro-3-phenylmethoxyphenyl)-1-methylimidazol-4-yl]-4-(2H-tetrazol-5-yl)pyridine], the IC50 (usually the concentration needed to halve the response being measured) lay in the range of 1 to 10 µM.
